As usually defined, the EC50 is the concentration that produces a half-maximal response.

The subject of data set [1] is senescent human adult lung fibroblasts. Description: Senescent fibroblast survival (DAPI cell counts). To be noted: 96 hours, 3 point and 6-point dose response. The format is cell-based. As for the experimental part: (§1) For senescent fibroblast survival experiments, human adult lung fibroblasts were replicatively passaged until senescence (confirmed by RNA and senescence associated beta galactosidase staining). Cells were then plated into 96-well plates and treated with the indicated compound and incubated for 96 hours. Cells were then fixed using 4% PFA, permeabilized using 0.25% triton x-100, and nuclear stained using DAPI. Cells were then imaged using a 4× objective on a Cytation5 microscope and cell counts were quantified using automated software (Biotek Gen5). Data shown are plotted as % survival, normalized to the vehicle treated well. Mean+/−SEM, N=3 independent experiments. For the TGFβ stimulated collagen deposition experiments (square datapoints), human adult lung fibroblasts (passage 3) were plated into 96-well plates and treated with the indicated compound +2 ng/mL TGFβ to stimulated collagen expression. Cells were incubated for 96 hours, fixed using 4% PFA, permeabilized using 0.25% triton x-100, and stained using a primary antibody recognizing type I collagen and a secondary infrared conjugated antibody. Wells were then imaged at 1× using a Odyssey Lx (LI-CORE) infrared imager and collagen intensity was quantified using automated software. Data shown are plotted as % collagen intensity, normalized to the vehicle treated well. Mean+/−SEM, N=3 independent experiments.

Data set [2] deals with Human adult lung fibroblasts (passage 3). As to the kind of experiment: TGFβ stimulated collagen deposition. The format is cell-based. To be noted: +2 ng/mL TGFβ, 96 hours. The protocol: as §1
Data set [3] has the same test system. Description: Fibroblast activation (TGFβ, alpha-smooth muscle actin). To be noted: +2 ng/mL TGFβ, 96 hours, alpha-smooth muscle actin intensity. The format is cell-based. The protocol: Human adult lung fibroblasts (passage 3) were plated into 96-well plates and treated with the indicated compound (6-point dose-response) +2 ng/mL TGFβ to stimulated fibroblast activation. Cells were incubated for 96 hours, fixed using 4% PFA, permeabilized using 0.25% triton x-100, and stained using a primary antibody recognizing alpha-smooth muscle actin and a secondary fluorescent conjugated antibody, and DAPI. Cells were then imaged using a 4× objective on a Cytation5 microscope and alpha-smooth muscle actin intensity was quantified using automated software (Biotek Gen5). Data shown are the IC50 values for each compounds efficacy at reducing expression of alpha-smooth muscle actin, calculated from the calculated dose-response curves, N=3 independent.

For data set [4], the system named is senescent human adult lung fibroblasts. As to the kind of experiment: Apoptosis of senescent lung fibroblasts (cleaved caspase-3, DAPI). As to conditions: replicatively senescent human adult lung fibroblasts, 96 hours, 6-point dose-response, N=3; for EC50: read-out: Senescent fibroblast apoptosis EC50. The class given is cell-based. As for the experimental part: (§2) Human adult lung fibroblasts were replicatively passaged until senescence (confirmed by RNA and senescence associated beta galactosidase staining). In a parallel experiment, low passage proliferating fibroblasts from the same donor were compared. Cells were plated into 96-well plates and treated with the indicated compound (6-point dose-response) and incubated for 96 hours. Cells were then fixed using 4% PFA, permeabilized using 0.25% triton x-100, and nuclear stained using a primary antibody for cleaved caspase-3, secondary fluorescence conjugated antibody, and DAPI. Cells were then imaged using a 4× objective on a Cytation5 microscope and cell counts were quantified using automated software (Biotek Gen5). Data shown are the EC50 values calculated for each compounds efficacy to induce apoptosis in senescence vs. proliferating lung fibroblasts, from the calculated dose-response curves, N=3 independent experiments.

For data set [5], the system named is low passage proliferating fibroblasts. Description: Apoptosis of low passage proliferating lung fibroblasts (cleaved caspase-3, DAPI). The format is cell-based, human. As to conditions: low passage proliferating fibroblasts from the same donor, 96 hours, 6-point dose-response, N=3; for EC50: read-out: Proliferating fibroblast apoptosis EC50. The protocol: as §2

Data set [6] concerns the target T1, DRAK1 (Homo sapiens, UniProt Q9UEE5).
T1 construct: purchased Reaction Biology
T1 sequence (Q9UEE5 1-414): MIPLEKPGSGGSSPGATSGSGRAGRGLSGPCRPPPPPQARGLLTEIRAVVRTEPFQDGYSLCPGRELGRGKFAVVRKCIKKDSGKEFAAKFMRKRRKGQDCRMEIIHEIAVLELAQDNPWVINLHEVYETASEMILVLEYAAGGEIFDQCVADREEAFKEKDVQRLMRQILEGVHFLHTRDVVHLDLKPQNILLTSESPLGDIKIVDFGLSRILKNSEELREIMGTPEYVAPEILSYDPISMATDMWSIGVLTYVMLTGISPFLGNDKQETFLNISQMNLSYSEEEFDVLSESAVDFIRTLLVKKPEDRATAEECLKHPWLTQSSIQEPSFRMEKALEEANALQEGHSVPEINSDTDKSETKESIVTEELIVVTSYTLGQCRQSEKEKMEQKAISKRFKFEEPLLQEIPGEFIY
Description: DRAK1 kinase activity assay (radiolabeled ATP, Reaction Biology). The class given is biochemical. As to conditions: FIG. 30. As for the experimental part: DRAK1 kinase activity was also assessed. […] A DRAK1 kinase activity was performed by Reaction Biology. DRAK1 kinase activity was measured and plotted (FIG. 30).

For data set [7], the system named is col1a2-mTmG mice. Description: Bleomycin injury and lung fibrosis, flow sorted lung cell populations, qPCR. The format is in vivo, mouse. As to conditions: daily from day 10 after bleomycin injury, lungs sorted on day 14. The protocol:
Seven days prior to injury col1a2-mTmG mice were treated with tamoxifen to turn on GFP expression in collagen producing fibroblasts. F-19 was administered daily starting on day 10 after injury, lungs were isolated, and lung tissue was flow sorted for fibroblasts, epithelial cells, and leukocytes on day 14. The sorted cells were subjected to RNA isolation followed by qPCR analysis of the indicated genes in each population of cells. N=3 mice/group.
In general terms: Quantitative PCR measures a nucleic acid by following its amplification.

In data set [8] the test system is wild type mice. As to the kind of experiment: Comparative flavonoid efficacy and toxicity in aged brain and liver (real-time PCR). The format is in vivo, mouse. The source says:
Five-month-old and twenty-eight month old wild type mice were oral gavage treated with the indicated concentrations of flavonoids (F, Q, compound 19, or compound 20) or vehicle for four consecutive days and were euthanized one week later.

Data set [9] can be described thus: in vitro. The format is in vitro ADME. To be noted: rat; for Plasma bound / Plasma unbound: 4 h. As for the experimental part: Plasma protein binding assays were also performed (Table 2). Compounds were incubated with rat plasma for 4 hours. The percent of F-4N recovered was analyzed by LC-MS. Warfarin was used as a control for a compound with high plasma protein binding. Analysis performed by Cyprotex (Framingham, MA).

Turning to `CCOc1ccc(-c2oc3ccccc3c(=O)c2O)cc1OCC` [2-(3,4-diethoxyphenyl)-3-hydroxy-4h-1-benzopyran-4-one], the “senescent fibroblast survival (in words)” value in [1] is “effective toxicity against senescent cells”. Besides, in data set [2], the “TGFβ stimulated collagen deposition (in words)” value is on record as “blocked collagen deposition”.

Regarding `CCOc1ccc(-c2oc3ccc(C)cc3c(=O)c2O)cc1OC` [2-(4-ethoxy-3-methoxyphenyl)-3-hydroxy-6-methylchromen-4-one], the “senescent fibroblast survival (in words)” value in [1] is “effective toxicity against senescent cells”. Besides, in data set [2], the “TGFβ stimulated collagen deposition (in words)” value is reported as “blocked collagen deposition”.

Consider `COc1cccc2oc(-c3ccc(OCc4ccccc4)cc3)c(O)c(=O)c12` [5-MeOH—F-20], for which the EC50 in data set [3] turned out to be 0.9 µM; in data set [4] it was 0.35 µM; in data set [5], 5.5 µM.

Consider `COc1cccc2oc(-c3ccc(OCc4ccncc4)cc3)c(O)c(=O)c12` [5-MeOH—F—4N], for which the DRAK1 kinase activity result in data set [6] is “inactive”. Moreover, the midpoint of the response in data set [3], the EC50, lay at 2.1 µM. Besides, in data set [4], the “Senescent fibroblast apoptosis EC50” value is “inactive”. Further, the “Proliferating fibroblast apoptosis EC50” value in [5] was “inactive”.

Regarding `CCOc1ccc(-c2oc3ccc(OC)cc3c(=O)c2O)cc1` [6-MeOH—F-19], the EC50 in data set [3] was 4 µM; in [4] it was 2.7 µM; in data set [5] it was 15.1 µM.

In the case of `COc1ccc2oc(-c3ccc(OCc4ccccc4)cc3)c(O)c(=O)c2c1` [6-MeOH—F-20], the results for the EC50 in data set [3], in [4] and in data set [5] were 2 µM, 0.8 µM and 5.1 µM, respectively.

For the compound `CCOc1ccc(-c2oc3ccccc3c(=O)c2O)cc1OC` [F-19(3MeOH)], the EC50 in data set [3] amounted to 6.4 µM; in data set [5], 10.5 µM.

As for `CCCOc1ccc(-c2oc3ccccc3c(=O)c2O)cc1` [F-19(Me)], the EC50 was determined as 4 µM in data set [3], 3.4 µM in [4] and 19.5 µM in [5].

Turning to `CCOc1ccc(-c2oc3ccccc3c(=O)c2O)cc1` [F-19], the EC50 in [3] turned out to be 2.4 µM; in [4] it was 2.4 µM; in data set [5], 24.5 µM. In addition, the “senescence markers or inflammatory cytokines in leukocytes (CD45+ cells), qPCR” value in data set [7] was “No changes”.

As for `O=c1c(O)c(-c2ccc(OCc3ccccc3)cc2)oc2ccccc12` [F-20], the EC50 in [3] was determined as 2 µM; in [4], 1.5 µM; in [5], 27.6 µM.

On to `O=c1c(O)c(-c2ccc(OCc3ccccn3)cc2)oc2ccccc12` [F—2N], for which the “Fibroblast activation (EC50)” value in [3] is “inactive”. In addition, the “Senescent fibroblast apoptosis EC50” value in [4] is “inactive”. For the same compound, the “Proliferating fibroblast apoptosis EC50” value in [5] was “inactive”.

On to `O=c1c(O)c(-c2ccc(OCc3cccnc3)cc2)oc2ccccc12` [F—3N], for which, in data set [3], the “Fibroblast activation (EC50)” value is “inactive”. The EC50 in [4] turned out to be 44.1 µM. Besides, the “Proliferating fibroblast apoptosis EC50” value in [5] is “inactive”.

In the case of `O=c1c(O)c(-c2ccc(OCC3CC3)cc2)oc2ccccc12` [F—CP], the EC50 in [3] is 1.1 µM; in [4], 0.9 µM; in data set [5] it was 10.9 µM.

In the case of `O=c1c(O)c(-c2ccc(O)c(O)c2)oc2cc(O)cc(O)c12` [Quercetin, quercetin], in [8] (oral gavage four consecutive days, euthanized one week later), the “CD68 expression (indicator of inflammatory activation) in brain or liver” value is given as “lack of drug-induced toxicity”. Also, the recovery at 4 h, 5 μM in [9] worked out at 0.8%. Further, in data set [9] (5 μM), the Plasma bound was 95% and the Plasma unbound stood at 5.0%.

In the case of `CC(=O)CC(c1ccccc1)c1c(O)c2ccccc2oc1=O` (stereo not shown) [Warfarin], in data set [9], the recovery at 4 h, 2 μM was 100%. In data set [9] (2 μM), this compound yielded a Plasma bound of 99% and a Plasma unbound of 0.971%.

In the case of `O=c1c(O)c(-c2ccc(O)c(O)c2)oc2cc(O)ccc12` [fisetin], the “CD68 expression (indicator of inflammatory activation) in brain or liver” value in data set [8] (mouse, in vivo, po) is “lack of drug-induced toxicity”.
